Results as given in ChEMBL document CHEMBL1152676, “Combretastatin-like chalcones as inhibitors of microtubule polymerization. Part 1: synthesis and biological evaluation of antivascular activity” (Bioorg Med Chem, 2009).
Activity calls are given as the source filed them. No cut-off for these calls is given here.

Columns and labels:
K562 [1] = assay: Antiproliferative activity against human K562 cells after 5 days by MTT assay; type: functional, cell-based
[2] = Inhibition of tubulin assembly by Woods method
K562 [3] = assay: Cell cycle arrest in human K562 cells assessed as accumulation at G2/M phase at 20 nM after 24 hrs by propidium iodide staining-based flow cytometry; type: functional
K562 [4] = assay: Cell cycle arrest in human K562 cells assessed as accumulation at S phase at 20 nM after 24 hrs by propidium iodide staining-based flow cytometry; type: functional
K562 [5] = assay: Cell cycle arrest in human K562 cells assessed as accumulation at G0/G1 phase at 20 nM after 24 hrs by propidium iodide staining-based flow cytometry; type: functional
[6] = Displacement of [3H]colchicine from tubulin assessed as bound colchicine at […] incubated in dark for 2 hrs by scintillation spectroscopy
HUVEC = assay: Antivascular activity in HUVEC cells assessed as change in cell shape at 1 uM after 1 hr by fluorescent-labeled high molecular weight F-dextran permeability assay; type: functional, cell-based; settings: Homo sapiens

SMILES: COc1ccc(C(=O)[C@H]2O[C@@H]2c2ccc(OC)c(OC)c2)cc1 (racemic)
- IC50 (K562 [1]; Homo sapiens, K562, 120 h): > 30000 nM

SMILES: COc1ccc(CCC(=O)c2cc(OC)c(OC)c(OC)c2)cc1O
- IC50 (K562 [1]; Homo sapiens, K562, 120 h): 1000 nM

SMILES: COc1ccc(/C=C/C(=O)c2ccc(OC)c(OC)c2)cc1
- IC50 (K562 [1]; Homo sapiens, K562, 120 h): 10000 nM

SMILES: CCC/C(=C\c1ccc(OC)c(O)c1)C(=O)c1cc(OC)c(OC)c(OC)c1
- IC50 (K562 [1]; Homo sapiens, K562, 120 h): 2.2 nM

SMILES: COc1ccc(/C=C/C(=O)c2cc(OC)c(OC)c(OC)c2)cc1F
- IC50 (K562 [1]; Homo sapiens, K562, 120 h): 300 nM
- IC50 [2]: 1200 nM
- Activity (K562 [3]): 72%
- Activity (K562 [4]): 19%
- Activity (K562 [5]): 9%

SMILES: COc1ccc(C(=O)/C=C/c2cc(OC)c(OC)c(OC)c2)c(O)c1
- IC50 (K562 [1]; Homo sapiens, K562, 120 h): 4400 nM

SMILES: COc1ccc(CC(C)C(=O)c2cc(OC)c(OC)c(OC)c2)cc1O (stereo not given)
- IC50 (K562 [1]; Homo sapiens, K562, 120 h): 30 nM
- IC50 [2]: 4000 nM
- Activity (K562 [3]): 28%
- Activity (K562 [4]): 36%
- Activity (K562 [5]): 36%

SMILES: COc1ccc([C@H]2O[C@@H]2C(=O)c2cc(OC)c(OC)c(OC)c2)cc1 (racemic)
- IC50 (K562 [1]; Homo sapiens, K562, 120 h): 4900 nM

SMILES: COc1ccc(C(=O)[C@H]2O[C@@H]2c2ccc(OC)cc2)cc1 (racemic)
- IC50 (K562 [1]; Homo sapiens, K562, 120 h): > 30000 nM

SMILES: COc1cc(OC)c(C(=O)/C=C/c2ccc(OC)c(OC)c2OC)c(OC)c1
- IC50 (K562 [1]; Homo sapiens, K562, 120 h): 300 nM
- IC50 [2]: 15000 nM
- Activity (K562 [3]): 74%
- Activity (K562 [4]): 16%
- Activity [6]: 27%
- Activity (K562 [5]): 10%

SMILES: COc1ccc(C(=O)/C=C/c2ccc(OC)c(OP(=O)([O-])[O-])c2)cc1.[Na+].[Na+]
- IC50 (K562 [1]; k562): 8 nM
- IC50 [2]: 39000 nM
- Activity (K562 [3]): 64%
- Activity (K562 [4]): 14%
- Activity (K562 [5]): 22%

SMILES: CN(Cc1cnc2nc(N)nc(N)c2n1)c1ccc(C(=O)N[C@@H](CCC(=O)O)C(=O)O)cc1
- Activity (HUVEC): inactive

SMILES: COc1ccc(/C=C\c2cc(OC)c(OC)c(OC)c2)cc1OP(=O)(O)O
- Activity (HUVEC): Active

SMILES: COc1cc(/C=C/C(=O)c2ccc3c(c2)OCO3)cc(OC)c1OC
- IC50 (K562 [1]; Homo sapiens, K562, 120 h): 2900 nM

SMILES: CCCO/C(=C\c1ccc(OC)c(F)c1)C(=O)c1cc(OC)c(OC)c(OC)c1
- IC50 (K562 [1]; Homo sapiens, K562, 120 h): 20 nM

SMILES: COc1ccc(C(=O)/C(C)=C/c2ccc(OC)c(OP(=O)(O)O)c2)cc1
- IC50 (K562 [1]; k562): 500 nM

SMILES: CCO/C(=C\c1ccc(OC)c(F)c1)C(=O)c1cc(OC)c(OC)c(OC)c1
- IC50 (K562 [1]; Homo sapiens, K562, 120 h): 11 nM

SMILES: O=C(/C=C/c1ccc(F)cc1)c1ccc(F)cc1
- IC50 (K562 [1]; Homo sapiens, K562, 120 h): 4900 nM

SMILES: COc1ccc(/C=C\c2cc(OC)c(OC)c(OC)c2)cc1O [COMBRETASTATIN A4]
- IC50 [2]: 100 nM
- Activity (K562 [3]): 90%
- Activity (K562 [4]): 8%
- Activity [6]: 8%
- Activity (K562 [5]): 2%

SMILES: O=C(/C=C/c1ccccc1)c1ccccc1 [CHALCONE]
- IC50 (K562 [1]; Homo sapiens, K562, 120 h): 3800 nM

SMILES: COc1ccc(C(=O)/C=C/c2ccc(OC)c(OP(=O)(O)O)c2)cc1
- Activity (HUVEC): Active
- Activity [6]: 83%

SMILES: COc1cc(/C=C/C(=O)c2ccc(F)cc2)cc(OC)c1OC
- IC50 (K562 [1]; Homo sapiens, K562, 120 h): 1600 nM

SMILES: COc1cc(C(=O)[C@H]2O[C@@H]2c2ccc(C)cc2)cc(OC)c1OC (racemic)
- IC50 (K562 [1]; Homo sapiens, K562, 120 h): 3400 nM

SMILES: COc1ccc(OC)c(C(=O)/C=C/c2ccc3c(c2)OCCO3)c1
- IC50 (K562 [1]; Homo sapiens, K562, 120 h): 300 nM

SMILES: COc1cc(C(=O)/C=C/c2ccc(F)cc2)cc(OC)c1OC
- IC50 (K562 [1]; Homo sapiens, K562, 120 h): 1500 nM

SMILES: COc1ccc(C(=O)/C(C)=C/c2ccc(OC)c(OP(=O)([O-])[O-])c2)cc1.[Na+].[Na+]
- IC50 (K562 [1]; k562): 0.12 nM
- IC50 [2]: 3100 nM
- Activity (K562 [3]): 69%
- Activity (K562 [4]): 10%
- Activity (K562 [5]): 21%

SMILES: COc1ccc(/C=C/C(=O)c2cc(OC)c(OC)c(OC)c2)cc1N
- IC50 (K562 [1]; Homo sapiens, K562, 120 h): 10 nM
- IC50 [2]: 2000 nM
- Activity (K562 [3]): 19%
- Activity (K562 [4]): 33%
- Activity (K562 [5]): 48%

SMILES: COc1ccc(C(=O)/C=C/c2cc(OC)c(OC)c(OC)c2)cc1OC
- IC50 (K562 [1]; Homo sapiens, K562, 120 h): 1100 nM

SMILES: COc1ccc(/C=C/C(=O)c2ccc(OC)cc2)cc1 [4,4'-DIMETHOXYCHALCONE]
- IC50 (K562 [1]; Homo sapiens, K562, 120 h): 15000 nM

SMILES: COc1ccc(C(=O)/C=C/c2ccc(OC)c(OC)c2)c(O)c1
- IC50 (K562 [1]; Homo sapiens, K562, 120 h): 16000 nM

SMILES: Cc1ccc(/C=C/C(=O)c2ccc(C)cc2)cc1 [4,4'-DIMETHYLCHALCONE]
- IC50 (K562 [1]; Homo sapiens, K562, 120 h): 11000 nM

SMILES: COc1ccc(/C=C(\C)C(O)c2cc(OC)c(OC)c(OC)c2)cc1O (stereo not given)
- IC50 (K562 [1]; Homo sapiens, K562, 120 h): 90 nM
- IC50 [2]: > 10000 nM
- Activity (K562 [3]): 24%
- Activity (K562 [4]): 33%
- Activity (K562 [5]): 44%

SMILES: COc1ccc(OC)c(C(=O)/C=C/c2ccc(N(C)C)cc2)c1
- IC50 (K562 [1]; Homo sapiens, K562, 120 h): 40 nM

SMILES: COc1ccc(C(=O)/C=C/c2ccc(O)c(O)c2)c(OC)c1OC
- IC50 (K562 [1]; Homo sapiens, K562, 120 h): 1700 nM

SMILES: COc1ccc(C(=O)/C(C)=C/c2cc(OC)ccc2OC)cc1
- IC50 (K562 [1]; Homo sapiens, K562, 120 h): 2300 nM

SMILES: COc1ccc(/C=C(\C)C(=O)c2ccc(OC)cc2)cc1
- IC50 (K562 [1]; Homo sapiens, K562, 120 h): 1900 nM

SMILES: COc1cc(OC)c(C=C(C)C(=O)c2cc(OC)c(OC)c(OC)c2)c(OC)c1
- IC50 (K562 [1]; Homo sapiens, K562, 120 h): > 25000 nM

SMILES: COc1ccc(/C=C(\C)C(=O)c2cc(OC)c(OC)c(OC)c2)cc1[N+](=O)[O-]
- IC50 (K562 [1]; Homo sapiens, K562, 120 h): 60 nM
- IC50 [2]: > 10000 nM
- Activity (K562 [3]): 28%
- Activity (K562 [4]): 36%
- Activity (K562 [5]): 36%

SMILES: COc1ccc(/C=C/C(O)c2cc(OC)c(OC)c(OC)c2)cc1O (stereo not given)
- IC50 (K562 [1]; Homo sapiens, K562, 120 h): 500 nM

SMILES: COc1ccc(CCC(O)c2cc(OC)c(OC)c(OC)c2)cc1 (stereo not given)
- IC50 (K562 [1]; Homo sapiens, K562, 120 h): 4000 nM

SMILES: COc1cc(/C=C/C(=O)c2ccccc2)cc(OC)c1OC
- IC50 (K562 [1]; Homo sapiens, K562, 120 h): 1600 nM

SMILES: COc1cc(C(=O)/C=C/c2cc(OC)c(OC)c(OC)c2)ccc1O
- IC50 (K562 [1]; Homo sapiens, K562, 120 h): 3500 nM
